Laboratory results taken from patent US20220175917A1, “COMBINATION OF IAP INHIBITOR AND IMMUNE CHECKPOINT INHIBITOR” (CHIA TAI TIANQING PHARMACEUTICAL GROUP CO., LTD., priority 2019, published 2022).

What was measured:
[1] = tested on: mouse triple-negative breast cancer EMT6 cell line; assay: In-vivo drug efficacy study 1: EMT6 transplanted BALB/c mouse model, tumor volume; conditions: for Tumor volume Day 0: Day 0 (start of dosing)
Experimental: To evaluate the tumor immunotherapeutic effect of test drugs in the mouse triple-negative breast cancer EMT6 cell line (EMT6 is from ATCC, cell No.: CRL-2755) transplanted BALB/c mouse model.
BALB/c mice, female, 6-7 weeks old, weighing about 19.1-22.6 g, were housed in separated ventilated boxes with constant temperature and humidity. The feeding room was under the following conditions: temperature: 20-26° C., humidity: 40-70%, ventilation: 10-20 times/h, and light/dark cycle: 12 h/12 h. The Co-60 radiation-sterilized complete pellet feed for mice was supplied continuously and can be taken freely without limitation, and the drinking tap water (used after autoclaving) was supplied continuously by the water bottle and can be taken freely. A total of 144 mice purchased from Shanghai Lingchang Biotechnology Co., Ltd. were used for the study. The BALB/c mice were inoculated with EMT6 cells subcutaneously to establish murine breast cancer models with subcutaneously-transplanted tumors. The mice were administered when the mean tumor volume reached about 97.3 mm^3. The test compounds were administered orally once every 3 days at a dose of 50 mg/kg. PD1 mAb (from BioXcell, cat No.: BP0146, batch No.: 695318A1B, clone No.: RMP1-14) was administered intraperitoneally once every 3 days at a dose of 10 mg/kg. Tumor volume was measured every 3 days with a two-dimensional caliper, and the volume was measured in mm^3 and calculated according to the following formula: V=0.5 a×b^2, where a and b are the long and short diameters, respectively, of the tumor. Anti-tumor efficacy was determined by dividing the mean tumor increase volume of compound-treated animals by the mean tumor increase volume of untreated animals.

[2] = tested on: mouse colon cancer MC38 cell line; assay: In vivo efficacy study 2: MC38 transplanted BALB/c mouse model, tumor volume; conditions: combination Example 2 50 mg/kg orally twice a week + Anti-PD1 10 mg/kg intravenously once a week, MC38, BALB/c mice
Source text: To evaluate the tumor immunotherapeutic effect of test drugs in the mouse colon cancer MC38 cell line (from Obio Technology (Shanghai) Co., Ltd.) transplanted BALB/c mouse model.
BALB/c mice, female, 6-7 weeks old, weighing about 18-22 g, were kept in a special pathogen-free environment and in separated ventilated cages (3-5 mice per cage). All cages, bedding and water were disinfected prior to use. All animals had free access to standard certified commercial laboratory diets. A total of 48 mice purchased from Shanghai Slac Laboratory Animal Co., Ltd. were enrolled. Each mouse was implanted subcutaneously in the right flank with mouse colon cancer MC38 cells (2×10^5 cells in 0.1 mL of phosphate buffered saline) for tumor growth. The mice were administered when the mean tumor volume reached about 70 mm^3. Test compounds were administered orally twice a week (morning and afternoon) at a dose of 50 mg/kg; PD-1 antibody (from BioXcell, cat. No.: BP0146, batch No.: 640517M2B) was administered intravenously once a week at a dose of 10 mg/kg. Tumor volume was measured […] with a two-dimensional caliper, and the volume was measured in mm^3 and calculated according to the following formula: V=0.5 a×b^2, where a and b are the long and short diameters, respectively, of the tumor. Anti-tumor efficacy was determined by dividing the mean tumor increase volume of compound-treated animals by the mean tumor increase volume of untreated animals.

[3] = Example 2 alone, 50 mg/kg orally once every 3 days, EMT6 subcutaneous, BALB/c mice
[4] = combination Example 2 50 mg/kg orally + Anti-PD1 10 mg/kg intraperitoneally, each once every 3 days, EMT6, BALB/c mice

CN[C@@H](C)C(=O)N[C@H](C(=O)N1CCC[C@H]1Cn1cc(C(C)=O)c2cc(Cl)ccc21)C1CCCCC1 [Example 2]
Tumor volume Day 0 [1, 3]: 97.3 mm^3 | Tumor volume Day 7 [1, 3]: 355.5 mm^3 | Tumor volume Day 14 [1, 3]: 1097.7 mm^3 | Tumor volume Day 25 [1, 3]: 2225.8 mm^3 | Tumor volume Day 0 [1, 4]: 97.3 mm^3 | Tumor volume Day 7 [1, 4]: 332.4 mm^3 | Tumor volume Day 14 [1, 4]: 174.2 mm^3 | Tumor volume Day 25 [1, 4]: 31.5 mm^3 | Tumor volume Day 0 ([2]; Day 0 (start of dosing)): 51.6 mm^3 | Tumor volume Day 5 ([2]; Day 5): 140.7 mm^3 | Tumor volume Day 12 ([2]; Day 12): 215.5 mm^3 | Tumor volume Day 20 ([2]; Day 20): 427.1 mm^3
